Several values for one entry are separate records, joined by “and”; a condition that tells them apart may be missing. Equal entries are not always repeated. Where two headings read alike, the source gives them in different places.
What was measured:
Assay type in all cases: cell-based
[1] = target: T1, THIK-1 S109A (Homo sapiens, UniProt Q9HB14, S109A); assay: Inside-out excised patch recordings, oocytes, THIK-1 S109A mutant (lipid activation); conditions: read-out: Linoleic acid EC50
T1 construct: expressed in transfected cells; host or cells: Xenopus oocytes (mRNA injection)
T1 sequence (Q9HB14 whole entry S109A): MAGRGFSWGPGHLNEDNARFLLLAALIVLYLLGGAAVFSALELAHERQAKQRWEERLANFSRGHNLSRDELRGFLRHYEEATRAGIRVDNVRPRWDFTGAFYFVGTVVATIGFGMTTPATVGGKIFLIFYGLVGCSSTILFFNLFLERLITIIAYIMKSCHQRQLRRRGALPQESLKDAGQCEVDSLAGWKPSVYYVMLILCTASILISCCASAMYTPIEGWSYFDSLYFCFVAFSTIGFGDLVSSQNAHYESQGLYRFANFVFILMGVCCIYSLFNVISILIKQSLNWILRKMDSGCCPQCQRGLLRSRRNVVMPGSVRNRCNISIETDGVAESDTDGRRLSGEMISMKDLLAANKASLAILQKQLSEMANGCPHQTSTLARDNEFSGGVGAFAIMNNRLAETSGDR
From the text: Supplement 41594_2025_1497_MOESM2_ESM.xlsx, sheet "ExtData_Fig_S5f" | column: Linoleic acid EC50 (µM); S109A

[2] = target: T2, THIK-1-Y273W (Homo sapiens, UniProt Q9HB14, Y273W); assay: Inside-out excised patch recordings, oocytes, THIK-1 Y273W mutant
T2 construct: expressed in transfected cells; host or cells: Xenopus oocytes (mRNA injection)
T2 sequence (Q9HB14 1-408 Y273W): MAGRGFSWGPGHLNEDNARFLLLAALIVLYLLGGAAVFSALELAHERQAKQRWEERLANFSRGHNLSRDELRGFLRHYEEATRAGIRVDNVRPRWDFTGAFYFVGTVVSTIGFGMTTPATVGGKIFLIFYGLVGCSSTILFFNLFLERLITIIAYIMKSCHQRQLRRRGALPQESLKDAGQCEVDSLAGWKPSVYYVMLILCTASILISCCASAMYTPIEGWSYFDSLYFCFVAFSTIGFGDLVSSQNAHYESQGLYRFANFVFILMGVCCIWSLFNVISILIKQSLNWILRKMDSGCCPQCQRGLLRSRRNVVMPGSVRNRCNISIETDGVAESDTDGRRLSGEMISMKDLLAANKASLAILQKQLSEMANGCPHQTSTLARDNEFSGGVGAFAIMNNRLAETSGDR
From the text: Human K2P13.1 THIK-1 (GenBank accession number: NM_022054) and human K2P12.1 THIK-2 (NM_022055.1) were used in this study. For functional expression studies, the respective K^+ channel subtype coding sequences were subcloned into the oocyte expression vector pSGEM or the dual-purpose expression vector pFAW[41] and verified by sequencing. All mutant channels were obtained by site-directed mutagenesis and verified by sequencing. To increase surface expression and macroscopic currents, measurements of THIK-2 channels used a mutated ER retention motif, (R11A R12A R14A R15A R16A; THIK-2*)[20]. Vector DNA was linearized with NheI or MluI, and mRNA was synthesized in vitro using the SP6 or T7 AmpliCap Max High Yield Message Maker Kit (Cellscript, USA) or HiScribe T7 ARCA mRNA Kit (New England Biolabs).
Two-electrode voltage–clamp (TEVC) studies were performed in Xenopus oocytes. All animal use conformed to the Guide for the Care and Use of Laboratory Animals (NIH Publication 85–23), and all experiments using Xenopus toads were approved by the local ethics panels. Oocytes were stored at 17 °C in ND96 recording solution composed of (in mM): 96 NaCl, 2 KCl, 1.8 CaCl2, 1 MgCl2, 5 HEPES (pH 7.5 adjusted with NaOH and HCl), supplemented with Na-pyruvate (275 mg L^–1), theophylline (90 mg L^–1) and gentamicin (50 mg L^–1). Oocytes were injected with 1 ng mRNA for WT or mutant channels, and were incubated for 24–48 h at 17 °C. Two-electrode voltage clamp recordings were then performed as previously described[42],[43]. For macroscopic patch–clamp measurements, oocytes were obtained as described above incubated at 17 °C in a solution containing (mM): 54 NaCl, 30 KCl, 2.4 NaHCO3, 0.82 MgSO4 ×7 H2O, 0.41 CaCl2, 0.33 Ca(NO3)2 ×4 H2O and 7.5 TRIS (pH 7.4 adjusted with NaOH and HCl) for 1–4 days before use. Excised patch recordings in inside-out configuration conditions were performed at room temperature. Patch pipettes were made from thick-walled borosilicate glass GB 200TF-8P (Science Products), had resistances of 0.2–0.5 MΩ (tip diameter, 10–25 µm) and filled with a pipette solution (in mM): 120 KCl, 10 HEPES and 3.6 CaCl2 (pH 7.4 adjusted with KOH and HCl). […] Currents were recorded with an EPC10 amplifier (HEKA Electronics) and sampled at 10 kHz or higher, with filtering set to 3 kHz (–3 dB) or higher, as appropriate for sampling rate. For measurements of GPCR activation, whole-cell currents were recorded for THIK-1 in transiently transfected HEK-293 cells. […] Single-channel currents were recorded with an Axopatch 200B amplifier through a Digidata 1440A digitizer (Molecular Devices). Data were filtered at 2 kHz and recorded at a 200-kHz sampling rate with the program Clampex (Molecular Devices). […]

[3] = target: T3, THIK-1 S136A (Homo sapiens, UniProt Q9HB14, S136A); assay: Inside-out excised patch recordings, oocytes, THIK-1 S136A mutant; conditions: read-out: TPenA IC50
T3 construct: expressed in transfected cells; host or cells: Xenopus oocytes (mRNA injection)
T3 sequence (Q9HB14 whole entry S136A): as the sequence (Q9HB14 whole entry S109A) above, with A109S, S136A counted along it
From the text: Supplement 41594_2025_1497_MOESM2_ESM.xlsx, sheet "ExtData_Fig_S2c" | column: Normalized currents

Row | EC50 ([1]; individual recordings) | EC50 ([1]; mean) | SMILES | τ of 1 mM TPenA block ([2]; individual recordings) | τ of 1 mM TPenA release ([2]; individual recordings) | τ of 1 mM TPenA block ([2]; mean) | τ of 1 mM TPenA release ([2]; mean) | IC50 ([3]; individual recordings) | IC50 ([3]; mean)
1 | 47.5 µM and 45.3 µM and 76.4 µM and 21.1 µM and 36.6 µM and 51 µM and 47.6 µM and 129 µM | 56.8 µM | CCCCC/C=C\C/C=C\CCCCCCCC(=O)O [linoleic acid] |  |  |  |  |  | 
2 |  |  | CCCCC[N+](CCCCC)(CCCCC)CCCCC [TPenA, tetrapentylammonium] | 13.500 s and 9.700 s and 8.400 s and 10.003 s and 8.350 s and 4.860 s and 3.160 s and 2.380 s and 2.990 s and 4.490 s and 10.150 s and 2.500 s and 2.400 s and 9.800 s and 5.700 s and 4.500 s and 4.080 s | 20.400 s and 14.700 s and 10.800 s and 14.800 s and 23.260 s and 14.350 s and 14.990 s and 14.820 s and 16.280 s and 20.350 s and 17.660 s | 6.29 s | 16.58 s | 102 µM and 173 µM and 396 µM and 375 µM and 349 µM and 120 µM and 192 µM | 244 µM

— publication PMC12263422, “Cryo-EM structure of the human THIK-1 K2P K^+ channel reveals a lower Y gate regulated by lipids and anesthetics” (Nature Structural & Molecular Biology, 2025)
